Measurements taken from patent US10829499B2, “Tetracyclic heterocycle compounds useful as HIV integrase inhibitors” (MERCK SHARP & DOHME CORP., priority 2016, dated 2020).
Where two headings read alike, the source gives them in different places.

Tested on: HIV-1 (NL4-3 strain)
Assay: Assay for Inhibition of HIV Replication (kinetic assay, MT4-gag-GFP reporter cell line; VIKING)
Type: cell-based
Protocol: This assay is a kinetic assay that employs a reporter cell line (MT4-gag-GFP) to quantify the number of new cells infected in each round of replication.
MT4-GFP cells (250,000 cells/ml) were bulk-infected with HIV-1 (NL4-3 strain) at low multiplicity of infection (MOI) in RPMI cell culture medium+10% FBS for 24 hours. Cells were then washed once in RPMI cell culture medium+10% FBS and resuspended in RPMI cell culture medium+0% or 10% or 100% normal human serum (NHS). Test compounds were serial-diluted in DMSO on an ECHO® liquid handler. The infected MT4-GFP cells were added to a 384-well poly-D-lysine coated black plate with clear bottom in which the diluted test compounds were placed. The cells were seeded at 8,000 cells per well and the final DMSO concentration was 0.4%. The infected cells (Green GFP cells) were quantified at both 24 and 48 hours post incubation using Acumen eX3. Viral reproductive ratio (R0) was determined using the number of infected cells at 48 hours divided by the number of infected cells at 24 hours. Percent viral growth inhibition was calculated by [1-(R-Rtripledrug),/(RDMSO-Rtripledrug)]*100. Compound potency IP or IC50 was determined by a 4-parameter dose response curve analysis. In vitro potency in the cell-based assay in the absence of normal human serum (NHS) and the presence of 100% NHS.

[1] = MT4-GFP cells infected with HIV-1 NL4-3, 0% normal human serum (NHS), read-out: VIKING IP50 (nM) with 0% NHS
[2] = MT4-GFP cells infected with HIV-1 NL4-3, 100% normal human serum (NHS), read-out: VIKING IP50 (nM) with 100% NHS
[3] = Human immunodeficiency virus 1, NL43, MT4-GFP cells infected with HIV-1 NL4-3, 0% normal human serum (NHS), read-out: VIKING IP50 (nM) with 0% NHS
[4] = Human immunodeficiency virus 1, NL43, MT4-GFP cells infected with HIV-1 NL4-3, 100% normal human serum (NHS), read-out: VIKING IP50 (nM) with 100% NHS

SMILES	IC50 [1]	IC50 [2]	IC50 [3]	IC50 [4]
C[C@H]1CN2C(=O)c3c(O)c(=O)c(C(=O)NCc4cccc(Cl)c4F)c4n3C(CC4)C2N1 (stereo partly drawn) [Compound 91]	1 nM	464 nM	–	–
C[C@H]1COC2C3CCc4c(C(=O)NCc5cccc(Cl)c5F)c(=O)c(O)c(n43)C(=O)N21 (single isomer, unassigned) [Compound 31]	0.418 nM	197 nM	–	–
C[C@H]1CN2C(=O)c3c(O)c(=O)c(C(=O)NCc4cccc(Cl)c4F)c4n3C(CC4)C2N1S(C)(=O)=O (stereo partly drawn) [Compound 118]	–	1280 nM	8.73 nM	–
C[C@H]1COC2C3CCc4c(C(=O)NCc5ccc(F)cc5F)c(=O)c(O)c(n43)C(=O)N21 (single isomer, unassigned) [Compound 27]	–	956 nM	0.313 nM	–
O=C(NCc1ccc(F)c(Cl)c1)c1c2n3c(c(O)c1=O)C(=O)N1CCOC1C3CC2 (single isomer, unassigned) [Compound 22]	–	503 nM	0.895 nM	–
O=C(NCc1ccccc1F)c1c2n3c(c(O)c1=O)C(=O)N1CCOC1C3CC2 (single isomer, unassigned) [Compound 12]	1.39 nM	892 nM	–	–
C[C@H]1COC2C3CCc4c(C(=O)NCc5cccc(Cl)c5F)c(=O)c(O)c(n43)C(=O)N21 (single isomer, unassigned) [Compound 29]	–	3410 nM	0.412 nM	–
C[C@H]1CNC2C3CCc4c(C(=O)NCc5cccc(Cl)c5F)c(=O)c(O)c(n43)C(=O)N21 (stereo partly drawn) [Compound 88]	–	–	0.705 nM	13.7 nM
C[C@H]1COC2C3CCc4c(C(=O)NCc5cccc(Cl)c5F)c(=O)c(O)c(n43)C(=O)N21 (single isomer, unassigned) [Compound 30]	0.536 nM	838 nM	–	–
CCNC1CC2C3OCCCN3C(=O)c3c(O)c(=O)c(C(=O)NCc4cccc(F)c4F)c1n32 (stereo not drawn) [Compound 185]	–	–	11.7 nM	1160 nM
O=C(NCc1ccc(F)cc1)c1c2n3c(c(O)c1=O)C(=O)N1CCCOC1C3CC2 (single isomer, unassigned) [Compound 52]	1.29 nM	3380 nM	–	–
COc1cc(F)cc(F)c1CNC(=O)c1c2n3c(c(O)c1=O)C(=O)N1CCCOC1C3CC2 (racemic) [Compound 59]	–	–	3.08 nM	8400 nM
C[C@H]1CN2C(=O)c3c(O)c(=O)c(C(=O)NCc4cccc(Cl)c4F)c4n3C(CC4)C2N1 (stereo partly drawn) [Compound 92]	0.67 nM	8.12 nM	–	–
O=C(NCc1c(F)cc(F)cc1F)c1c2n3c(c(O)c1=O)C(=O)N1CCOC1C3CC2 (single isomer, unassigned) [Compound 20]	0.727 nM	602 nM	–	–
O=C(NCc1cccc(Cl)c1F)c1c2n3c(c(O)c1=O)C(=O)N1C4CCC(C4)OC1C3CC2 (stereo not drawn) [Compound 155]	2.77 nM	7460 nM	–	–
CC12OCCCN1C(=O)c1c(O)c(=O)c(C(=O)NCc3ccc(F)cc3F)c3n1C2CC3 (stereo not drawn) [Compound 135]	0.791 nM	1280 nM	–	–
CCNC1CC2C3OCCCN3C(=O)c3c(O)c(=O)c(C(=O)NCc4cccc(Cl)c4F)c1n32 (stereo not drawn) [Compound 193]	7.89 nM	2910 nM	–	–
COC1CC2C3N(C)CCN3C(=O)c3c(O)c(=O)c(C(=O)NCc4ccc(F)cc4F)c1n32 (stereo not drawn) [Compound 126]	2.42 nM	211 nM	–	–
C[C@H]1CN(C)C2C3CCc4c(C(=O)NCc5cccc(Cl)c5F)c(=O)c(O)c(n43)C(=O)N21 (stereo partly drawn) [Compound 109]	–	480 nM	1.17 nM	–
O=C(NCc1cccc(F)c1F)c1c2n3c(c(O)c1=O)C(=O)N1C4CCC(C4)OC1C3CC2 (stereo not drawn) [Compound 165]	6.42 nM	56.1 nM	–	–
O=C(NCc1cccc(Cl)c1F)c1c2n3c(c(O)c1=O)C(=O)N1CCCOC1C3CC2 (single isomer, unassigned) [Compound 49]	–	–	0.96 nM	1190 nM
